Data taken from publication PMC5772648, “Targeted NUDT5 inhibitors block hormone signaling in breast cancer cells” (Nature Communications, 2018).

Key:
[1] = tested on: HL-60 or U-2 OS cells; test: cell viability by resazurin; format: cell-based; conditions: 72 h, Supplementary Figs. 7 and 10b (HL-60, U-2 OS, T47D)
Protocol: Cell viability was assessed by resazurin[9]. 5000 HL-60 cells (or 1000 U-2 OS/2000 T47D cells) were seeded per well on a 96-well plate. The following morning, compounds (or the equivalent amount of DMSO) were added to obtain the final concentrations indicated and the cells were incubated at 37 °C for 72 h with resazurin added at 0.02 mg/mL for the last 2–6 h. Resorufin fluorescence was detected at […] with a Hidex Sense fluorescent plate reader. Viability curves were fit using the sigmoidal dose-response (variable slope) function in GraphPad Prism 7.

[2] = target: T1, NUDT9 (Homo sapiens, UniProt Q9BW91); test: phosphohydrolase selectivity, malachite green assay; format: biochemical; conditions: 100 µM
T1 construct: His-tag (N); made in house; host or cells: E. coli BL21 (DE3) R3 pRARE2
T1 sequence (Q9BW91 47-350): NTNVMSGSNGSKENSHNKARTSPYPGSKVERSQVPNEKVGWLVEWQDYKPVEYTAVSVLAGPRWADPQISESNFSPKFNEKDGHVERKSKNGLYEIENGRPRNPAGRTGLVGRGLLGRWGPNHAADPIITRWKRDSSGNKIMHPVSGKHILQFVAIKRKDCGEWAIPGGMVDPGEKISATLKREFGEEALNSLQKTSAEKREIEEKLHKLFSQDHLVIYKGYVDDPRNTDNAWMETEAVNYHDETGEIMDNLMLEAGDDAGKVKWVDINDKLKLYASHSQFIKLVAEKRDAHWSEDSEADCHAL
Protocol: (§1) The selectivity assay for TH5427 against similar pyrophosphohydrolases was performed with MTH1, NUDT9, NUDT2, NUDT12, NUDT14, NUDT15, NUDT18, ITPase, dCTPase and dUTPase[9]. All analyses were performed by malachite green assay following 30 min incubation at room temperature in reaction buffer (100 mM Tris Acetate, pH 7.5, 40 mM NaCl, 10 mM MgAc, 1 mM DTT) with 100 µM TH5427 and preferred substrates for each enzyme (4.75 nM MTH1 with 100 µM dGTP, 8 nM NUDT15 with 100 µM dGTP, 8 nM NUDT2 with 16 µM AP4A, 2 nM NUDT5 with 50 µM ADPR, 20 nM NUDT9 with 50 µM ADPR, 20 nM NUDT12 with 50 µM NADH, 2 nM NUDT14 with 50 µM ADPR, 200 nM NUDT18 with 50 µM 8-oxo-dGTP, 0.2 nM ITPase with […], 35 nM dCTPase with 35 µM dCTP, and 1 nM dUTPase with 12.5 µM dUTP). MTH1, NUDT15, NUDT18, ITPase, dCTPase and dUTPase reactions were coupled with 0.2 U/mL pyrophosphatase, while NUDT2, NUDT5, NUDT9, NUDT12, and NUDT14 reactions were coupled by bovine intestinal phosphatase (10 U/mL).

[3] = target: T2, dCTPase (Homo sapiens, UniProt Q9H773); test: as above; format: biochemical
T2 construct: His-tag (N, cleaved yes); made in house; host or cells: E. coli BL21 (DE3) R3 pRARE2
T2 sequence (Q9H773 1-170): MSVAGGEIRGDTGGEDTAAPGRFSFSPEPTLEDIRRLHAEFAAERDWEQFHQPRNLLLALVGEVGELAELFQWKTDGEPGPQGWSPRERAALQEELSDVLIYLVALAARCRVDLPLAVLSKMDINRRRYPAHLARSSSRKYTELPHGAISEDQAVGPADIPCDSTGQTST
Protocol: as §1

[4] = target: T3, purified NUDT5 (Homo sapiens, UniProt Q9UKK9); test: biochemical conversion of 32P-PAR to ATP and AMP by PARG and NUDT5 (TLC); conditions: 0.6 µM, with NUDT5, PARG and PPi
T3 construct: His-tag (N); made in house; host or cells: E. coli BL21 (DE3) R3 pRARE2
Protocol: ^32P-NAD-labeled PAR was prepared as follows: 5 µg of purified GST-PARP1 was incubated with 2 µg of activated calf thymus DNA and 10 mM NAD +/^32P-NAD (Perkin-Elmer) at a ratio of 1:10 for 30 min at 25 °C and brought to a final volume of 100 µL with PARP reaction buffer (50 mM Tris, pH 7.5, 50 mM NaCl, 0.5 mM DTT, 0.1% Triton X-100 and protease inhibitors)[23]. After incubation, 0.4 µg of DNase was added to obtain DNA-free probes and the reaction was precipitated using TCA. The pellet was washed with acetone, dried and resuspended in 100 µl (10 mM Tris-HCl, pH 8.0, 1 mM EDTA, 0.1 % SDS, 100 µg/mL of Proteinase K) and incubated for 1 h at 37 °C, after which radio-labeled PAR was extracted using phenol/chloroform and ethanol precipitation. The pellet was resuspended in 50 µL (10 mM Tris-HCl, pH 8.0, 1 mM EDTA) and used for subsequent biochemical analyses.
Enzymatic conversion of radiolabeled ^32P-PAR by PARG and NUDT5 was performed using purified radio-labeled PAR (as described above) with the addition of recombinant bovine PARG in PAR glycohydroxylation buffer (PGB; 10 mM HEPES, pH 7.5, 150 mM KCl, 10 mM MgCl2)[23]. Recombinant PARG was added at the beginning of the reaction to a 10 µL final volume and incubated for 1 h at 25 °C. Recombinant NUDT5, pyrophosphate and/or TH5427 (0.6 µM) were added as indicated and incubated for an additional hour. […]

[5] = tested on: T47D cells; test: R5020-induced proliferation by BrdU incorporation; format: cell-based; conditions: 1.5 µM, 24 h after R5020
Protocol: T47D^M cells (1 × 10^4) were plated in a 96-well plate in the presence or absence of inhibitors 2 h prior to R5020 addition. The cell proliferation ELISA BrdU chemiluminescent assay (Roche) was performed according to the manufacturer’s instructions 24 h following hormone addition.

[6] = target: MTH1 (Homo sapiens, UniProt P36639); test: CETSA melt curve for MTH1; format: cell-based; parameters: endogenous in cells; conditions: 20 µM
Protocol: For CETSA experiments with cells treated in culture, 1 × 10^6 HL-60 were treated with DMSO (0.1 % v/v final) or 20 µM compound for 3 h at 37 °C and 5% CO2 in a humidified incubator. T47D^WT cells were treated instead with 80 µM TH1659, 15 µM TH5423/5424 and 1.5 µM TH5427. The cells were harvested, washed twice with PBS and resuspended in TBS with protease inhibitors, as above. Heating was identical as before, except that immediately following heating, the cell suspensions were snap frozen in a dry ice/ethanol bath and freeze-thawed, as previously, to lyse cells. Centrifugation at 20 000 × g for 20 min at 4 °C removed cellular debris and protein aggregates, and lysates were prepared for western blotting.

## Cn1c(=O)c2c(nc(N3CCNCC3)n2Cc2nnc(-c3ccc(Cl)c(Cl)c3)o2)n(C)c1=O [TH5427]
[1]
  toxicity in cell lines tested: non-toxic in cell lines tested up to 20 µM
[2]
  effect on NUDT9-mediated hydrolysis of ADPR: no effect
[3]
  inhibition at 100 µM: 39%
[4]
  synthesis of ATP and AMP from 32P-PAR: inhibited the biochemical synthesis of ATP and AMP from ^32P-PAR
[5]
  progestin-dependent proliferation, BrdU incorporation: abrogated the progestin-dependent proliferation response
[6]
  thermal shift of MTH1 by CETSA: no thermal shift
